Legend:
Jeko-1 (SOX11+) = test: Cell viability assay (CellTiter-Blue resazurin reduction); type: cell-based; details: Homo sapiens, JeKo-1, 72 h, JeKo-1 cells; for IC50: 0-40 μM; for viability at 20 µM: 20 μM compound, normalized to 0.2% DMSO
Procedure: Cell viability was determined by a fluorometric resazurin reduction method (CellTiter-Blue; Promega, Madison, Wis.) following the manufacturer's instructions. […] Cells were incubated for 72 hours. After incubation, 20 μl CellTiter-Blue Cell was added to each well and incubated for another 2 hours. […] The number of viable cells in each treated well was calculated, based on the linear least squares regression of the standard curve (OD vs. cell concentration). The viability of cells treated with compounds was normalized to the viability of cells treated with 0.2% Dimethyl sulfoxide (DMSO). Cell counts were confirmed with Trypan Blue Exclusion Assay on the Countess automated cell counter (Invitrogen) according to the manufacturer's specifications. The average and mean standard deviation were calculated from three separate experiments. IC50 values were calculated using the GraphPad Prism (version 4.00) based on a sigmoidal dose-response equation.

(His)6-SOX11-DBD protein = target: T1, (His)6-SOX11-DBD protein (Homo sapiens, UniProt P35716); test: Surface Plasmon Resonance (SPR) assay; type: binding; details: immobilized recombinant (His)6-SOX11-DBD, 25° C., compounds 5-40 μM, mean of three experiments
T1 construct: Recombinant (His)6-SOX11-DBD protein was immobilized
T1 sequence (P35716 49-117 limits assumed): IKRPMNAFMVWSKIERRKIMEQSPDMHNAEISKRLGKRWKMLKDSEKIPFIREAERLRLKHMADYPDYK
Procedure: Surface Plasmon Resonance (SPR) Assay
Recombinant (His)6-SOX11-DBD protein was immobilized at a flow rate of 10 μl/min for 180 seconds to the right channel of a gold-coated SCR NiHC200M sensor chip (XanTec bioanalytics) placed in a Reichert 2SPR instrument (Reichert Technologies). The left channel, without immobilized protein, was used as a reference. […] Compounds flowed sequentially from the left to the right channel over the prepared sensor chip surface. 120 seconds association phase with each compound concentration was followed by 300 seconds dissociation phase with the assay buffer alone. The ka, kd, and KD values were determined from the sensograms for at least 3 concentrations of each compound by curve fitting the data using Reichert's TraceDrawer software. The mean KD value for each compound was calculated from three separate experiments.

Row | Structure (SMILES) | IC50 (Jeko-1 (SOX11+)) | viability at 20 µM (Jeko-1 (SOX11+)) | Kd ((His)6-SOX11-DBD protein)
1 | CC1Sc2ccc(C(=O)Nc3cccc(S(=O)(=O)NC4CC4)c3)cc2NC1=O (centres unmarked) | 4 µM | 11.9% | 96.9 µM
2 | Cc1ccccc1COc1cccc(NC(=O)c2ccc3c(c2)NC(=O)C(C)S3)c1 (centres unmarked) | – | 110% | 5.41 µM
3 | CC1Sc2ccc(C(=O)Nc3cccc(S(=O)(=O)N(C)C(C)C)c3)cc2NC1=O (centres unmarked) | 6 µM | 9.64% | 65.9 µM
4 | CCCN1C(=O)CSc2ccc(C(=O)Nc3ccc(S(=O)(=O)N4CCCCC4)cc3)cc21 | 17 µM | 39.9% | 5.87 µM
5 | CC1Sc2ccc(C(=O)Nc3ccc(C(=O)Nc4ccccc4)cc3)cc2NC1=O (centres unmarked) | > 20 µM | 97.5% | 13.7 µM
6 | CC1Sc2ccc(C(=O)Nc3ccc(CNc4ccccc4)cc3)cc2NC1=O (centres unmarked) | – | 108% | 0.258 µM
7 | CN1C(=O)COc2ccc(C(=O)Nc3ccc(S(=O)(=O)N4CCCCC4)cc3)cc21 | > 20 µM | 90.6% | 5.35 µM
8 | O=C(Nc1ccc(S(=O)(=O)Nc2ccccc2)cc1)c1ccc2cnccc2c1 | 15 µM | 6.45% | 134 µM
9 | Cc1cccc(NCc2ccc(NC(=O)c3ccc4c(c3)NC(=O)C(C)S4)cc2)c1 (centres unmarked) | – | 79% | 8.16 µM
10 | CN(c1ccccc1)S(=O)(=O)c1ccc(NC(=O)c2ccc3nncn3c2)cc1 | > 20 µM | 126% | 4.07 µM
11 | O=C(Nc1ccc(S(=O)(=O)Nc2ccccc2)cc1)c1ccc2cccnc2c1 | > 20 µM | 94.2% | 2.01 µM
12 | O=C(Nc1ccc(S(=O)(=O)Nc2ccccc2)cc1)c1ccc2ccccc2c1 | > 20 µM | 96.3% | 3.42 µM
13 | CC1Sc2ccc(C(=O)Nc3ccc(S(=O)(=O)N(C)C(C)C)cc3)cc2NC1=O (centres unmarked) | 8 µM | 0.92% | 38.9 µM
14 | CC1Sc2ccc(C(=O)Nc3ccc(CN(C)c4ccccc4)cc3)cc2NC1=O (centres unmarked) | – | 84.9% | 3.62 µM
15 | CC1Sc2ccc(C(=O)Nc3ccc(S(=O)(=O)Nc4ccc(Cl)cc4)cc3)cc2NC1=O (centres unmarked) | 15 µM | 9.99% | 0.861 µM
16 | CC1Sc2ccc(C(=O)Nc3ccc(S(=O)(=O)Nc4ccccc4)cc3F)cc2NC1=O (centres unmarked) | > 20 µM | 90% | 31 µM
17 | CC1Sc2ccc(C(=O)Nc3ccc(S(=O)(=O)Nc4ccncn4)cc3)cc2NC1=O (centres unmarked) | > 20 µM | 106% | 5.51 µM
18 | CC1Sc2ccc(C(=O)Nc3ccc(Cl)c(S(=O)(=O)N4CCCC4)c3)cc2NC1=O (centres unmarked) | – | 1.39% | 23.9 µM
19 | CC1Sc2ccc(C(=O)Nc3ccc(S(=O)(=O)NC4CCCC4)cc3)cc2NC1=O (centres unmarked) | 15 µM | 36.3% | 13.4 µM
20 | Cc1cccc(NS(=O)(=O)c2ccc(NC(=O)c3ccc4c(c3)NC(=O)C(C)S4)cc2)c1 (centres unmarked) | 11 µM | 0.58% | 1.16 µM
21 | O=C(Nc1ccc(S(=O)(=O)Nc2ccccc2)cc1)c1ccc2nc[nH]c2c1 | > 20 µM | 93.6% | 230 µM
22 | CC1Sc2ccc(C(=O)Nc3cccc(S(=O)(=O)Nc4ccc(N)cc4)c3)cc2NC1=O (centres unmarked) | > 20 µM | 59.7% | 59.7 µM
23 | CC1Sc2ccc(C(=O)Nc3ccc(S(=O)(=O)Nc4ccc(O)cc4)cc3)cc2NC1=O (centres unmarked) | < 20 µM | 13.7% | 32 µM
24 | CC1Sc2ccc(C(=O)Nc3ccc(S(=O)(=O)N4CCOCC4)cc3)cc2NC1=O (centres unmarked) | 11 µM | 18.9% | 137 µM
25 | CC1Sc2ccc(C(=O)Nc3cccc(S(=O)(=O)Nc4ccc(Cl)cc4)c3)cc2NC1=O (centres unmarked) | 11.5 µM | 10.4% | 4.24 µM
26 | CC1Sc2ccc(C(=O)Nc3cccc(S(=O)(=O)Nc4ccccc4)c3)cc2NC1=O (centres unmarked) | 10 µM | 2.81% | 18.6 µM

Row | Structure (SMILES) | IC50 (Jeko-1 (SOX11+)) | viability at 20 µM (Jeko-1 (SOX11+)) | Kd ((His)6-SOX11-DBD protein)
27 | CC1Sc2ccc(NC(=O)c3ccc(S(=O)(=O)Nc4ccccc4)cc3)cc2NC1=O (centres unmarked) | 9 µM | 33.5% | 33.2 µM
28 | Cc1cc(NC(=O)c2ccc3c(c2)NC(=O)C(C)S3)ccc1S(=O)(=O)Nc1ccccc1 (centres unmarked) | 10 µM | 1.22% | 2.5 µM
29 | CC(C)C1Sc2ccc(C(=O)Nc3ccc(S(=O)(=O)Nc4ccccc4)cc3)cc2NC1=O (centres unmarked) | 2.5 µM | 1.01% | 1.18 µM
30 | CC1Sc2ccc(C(=O)Nc3cccc(S(=O)(=O)N4CCOCC4)c3)cc2NC1=O (centres unmarked) | 8 µM | 30.8% | 85 µM
31 | c1ccc(COc2cccc(CNc3ccc4cncnc4c3)c2)cc1 | – | 1.4% | 24.2 µM
32 | O=C(Nc1ccc(S(=O)(=O)Nc2ccccc2)cc1)c1ccc2oc(=O)[nH]c2c1 | 20 µM | 51.8% | 8.68 µM
33 | O=C(Nc1ccc(S(=O)(=O)Nc2ccccc2)cc1)c1ccc2c(c1)CCCS2 | 12 µM | 1.95% | 1.62 µM
34 | O=C1CSc2ccc(C(=O)Nc3cccc(S(=O)(=O)N4CCCC4)c3)cc2N1 | 20 µM | 45.4% | 38.6 µM
35 | CC(C)NS(=O)(=O)c1ccc(NC(=O)c2ccc3c(c2)NC(=O)C(C)S3)cc1 (centres unmarked) | 8 µM | 20.3% | 9.79 µM
36 | CC1Oc2ccc(C(=O)Nc3ccc(S(=O)(=O)Nc4ccccc4)cc3)cc2NC1=O (centres unmarked) | 12 µM | 9.09% | 15.3 µM
37 | CC1Sc2ccc(C(=O)Nc3ccc(S(=O)(=O)N4CCNCC4)cc3)cc2NC1=O (centres unmarked) | > 20 µM | 92.4% | 17.5 µM
38 | CC1Sc2ccc(C(=O)Nc3ccc(S(=O)(=O)Nc4ccccc4)s3)cc2NC1=O (centres unmarked) | > 20 µM | 57.4% | 6.63 µM
39 | CC(=O)N1CCN(S(=O)(=O)c2cccc(NC(=O)c3ccc4c(c3)CCCS4)c2)CC1 | – | – | 15.4 µM
40 | CC1Sc2ccc(C(=O)Nc3cccc(OCc4cccc(OS(=O)(=O)F)c4)c3)cc2NC1=O (centres unmarked) | – | – | 16.9 µM
41 | CN(Cc1ccc(NC(=O)c2ccc3c(c2)CCCS3)cc1)c1ccccc1 | – | – | 11.5 µM
42 | CC(C)N1C(=O)CSc2ccc(C(=O)Nc3ccc(S(=O)(=O)N4CCCCC4)cc3)cc21 | – | – | 6.37 µM
43 | c1ncc2ccc(NCc3ccc(OCC4CCOCC4)cc3)cc2n1 | – | – | 24.4 µM
44 | CN(c1ccccc1)S(=O)(=O)c1ccc(NC(=O)c2ccc3c(c2)CCCS3)cc1Cl | – | – | 10.2 µM
45 | Cc1cccc(COc2ccc(CNc3ccc4cncnc4c3)cc2)c1 | – | – | 7.63 µM
46 | O=C(Nc1cccc(CN2CCCCC2)c1)c1ccc2c(c1)CCCS2 | – | – | 24 µM
47 | Nc1cccc(Nc2ccnc(Nc3cccc(S(=O)(=O)N4CCCC4)c3)n2)c1 | – | – | 118 µM
48 | O=C(Nc1ccc(CNc2ccccc2)cc1)c1ccc2nncn2c1 | – | – | 46.1 µM
49 | c1ncc2ccc(NCc3ccc(OCC4CCCCC4)cc3)cc2n1 | – | – | 8.28 µM
50 | CC(=O)NCc1cccc(Nc2ccnc(Nc3cccc(S(=O)(=O)N4CCCC4)c3)n2)c1 | – | – | 38 µM
51 | O=C(Nc1ccc(S(=O)(=O)Nc2ccccc2)cc1)c1ccc2nncn2c1 | – | – | 367 µM
52 | NCCc1nc2ccc(C(=O)Nc3ccc(S(=O)(=O)Nc4ccccc4)cc3)cc2[nH]1 | – | – | 79.3 µM
